This passage reports IC50 results from patent US11208400B2, “Substituted 6-(1H-pyrazol-1-yl)pyrimidin-4-amine derivatives and uses thereof” (Bayer Aktiengesellschaft, priority 2016, dated 2021).

This assay deals with T1, human Npt2a (Homo sapiens, UniProt Q06495).
T1 construct: expressed in transfected cells
T1 sequence (Q06495 1-639): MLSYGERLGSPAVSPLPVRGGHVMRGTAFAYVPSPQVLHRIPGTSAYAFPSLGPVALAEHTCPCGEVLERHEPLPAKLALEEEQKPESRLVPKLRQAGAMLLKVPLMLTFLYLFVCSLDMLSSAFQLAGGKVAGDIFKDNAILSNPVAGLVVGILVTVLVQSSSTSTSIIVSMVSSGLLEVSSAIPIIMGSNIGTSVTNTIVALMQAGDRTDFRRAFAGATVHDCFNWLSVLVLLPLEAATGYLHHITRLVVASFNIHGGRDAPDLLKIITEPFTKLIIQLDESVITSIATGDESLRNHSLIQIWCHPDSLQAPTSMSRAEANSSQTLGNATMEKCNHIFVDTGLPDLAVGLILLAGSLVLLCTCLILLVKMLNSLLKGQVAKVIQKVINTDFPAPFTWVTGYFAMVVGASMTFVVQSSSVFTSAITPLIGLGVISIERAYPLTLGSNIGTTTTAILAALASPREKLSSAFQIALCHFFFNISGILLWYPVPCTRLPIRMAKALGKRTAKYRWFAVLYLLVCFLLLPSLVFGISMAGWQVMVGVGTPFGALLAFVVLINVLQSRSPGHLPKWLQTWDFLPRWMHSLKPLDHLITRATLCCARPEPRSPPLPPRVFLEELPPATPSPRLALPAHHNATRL
Kind of assay: Npt2a activity cell based assay, membrane potential dye, CHO T-REx hNpt2a cells. To be noted: doxycycline-induced, depolarization by sodium phosphate influx, average or median values if tested more than once. The essentials:
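Doxycycline-induced (0.5 μg/mL, 24 h) CHO T-REx cells were loaded with membrane potential dye in sodium-free NHE buffer (pH 7.4) and exposed to compound (50 μM–1 nM, 5 min, room temperature).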
In general, IC50 refers to the point on the concentration scale where inhibition reaches its midpoint. Read a high IC50 as weaker potency. As for `Cc1ccc(-c2nn(CC3CC3)c(Nc3cc(-n4nc(C)c(C(C)(C)O)c4C)ncn3)c2C)cc1` [Example 389, 2-[1-(6-{[1-(cyclopropylmethyl)-4-methyl-3-(4-methylphenyl)-1H-pyrazol-5-yl]amino}pyrimidin-4-yl)-3,5-dimethyl-1H-pyrazol-4-yl]propan-2-ol], the IC50 is 130 nM.

For the compound `Cc1nn(-c2cc(Nc3c(C)c(-c4ccc(F)cc4)nn3CC3CC3)ncn2)c(C)c1CN1CC(F)(F)C1` [Example 390, N-[1-(cyclopropylmethyl)-3-(4-fluorophenyl)-4-methyl-1H-pyrazol-5-yl]-6-{4-[(3,3-difluoroazetidin-1-yl)methyl]-3,5-dimethyl-1H-pyrazol-1-yl}pyrimidin-4-amine], the IC50 came to 25 nM.

`CCc1c(-c2ccc(F)cc2)nn(Cc2nnnn2C)c1Nc1cc(-n2nc(C)cc2C)ncn1` [Example 391, 6-(3,5-dimethyl-1H-pyrazol-1-yl)-N-{4-ethyl-3-(4-fluorophenyl)-1-[(1-methyl-1H-tetrazol-5-yl)methyl]-1H-pyrazol-5-yl}pyrimidin-4-amine] had an IC50 of 13 nM. Compound `Cc1nn(-c2cc(Nc3c(C)nn(-c4ccc(F)cc4)c3C)ncn2)c(C)c1CC(C)(C)O` [Example 393, 1-[1-(6-{[1-(4-fluorophenyl)-3,5-dimethyl-1H-pyrazol-4-yl]amino}pyrimidin-4-yl)-3,5-dimethyl-1H-pyrazol-4-yl]-2-methylpropan-2-ol] displayed a half-inhibitory concentration (IC50) of 180 nM. The compound `Cc1nn(-c2cc(Nc3c(C)c(-c4ccc(F)cc4)nn3CC3CC3)ncn2)c2c1C(=O)CC2` [Example 394, 1-(6-{[1-(cyclopropylmethyl)-3-(4-fluorophenyl)-4-methyl-1H-pyrazol-5-yl]amino}pyrimidin-4-yl)-3-methyl-5,6-dihydrocyclopenta[c]pyrazol-4(1H)-one] showed an IC50 of 71 nM. This IC50 is about 2.5-fold lower than that of the compound before. `Cc1c(-c2ccc(F)cc2)nn(CC2CC2)c1Nc1cc(-n2nc3c(c2C)C(=O)CC3)ncn1` [Example 395, 2-(6-{[1-(cyclopropylmethyl)-3-(4-fluorophenyl)-4-methyl-1H-pyrazol-5-yl]amino}pyrimidin-4-yl)-3-methyl-5,6-dihydrocyclopenta[c]pyrazol-4(2H)-one]: the IC50 is 19 nM. This IC50 is about 3.7-fold lower than that of the compound before. Take `Cc1nn(-c2cc(Nc3c(C)c(-c4ccc(C(F)F)cc4)nn3CC3CC3)ncn2)c(C)c1C(C)(C)O` [Example 396, 2-{1-[6-({1-(cyclopropylmethyl)-3-[4-(difluoromethyl)phenyl]-4-methyl-11H-pyrazol-5-yl}amino)pyrimidin-4-yl]-3,5-dimethyl-1H-pyrazol-4-yl}propan-2-ol]: the IC50 came out at 16 nM. `Cc1ccc(-c2nn(CC3CC3)c(Nc3cc(-n4nc(C)c(Cl)c4C)ncn3)c2C)cn1` [Example 397, 6-(4-chloro-3,5-dimethyl-1H-pyrazol-1-yl)-N-[1-(cyclopropylmethyl)-4-methyl-3-(6-methylpyridin-3-yl)-1H-pyrazol-5-yl]pyrimidin-4-amine]: half-maximal inhibition (IC50) required 92 nM. In turn, `Cc1nn(-c2cc(Nc3c(C)c(-c4ccc(OC(F)F)cc4)nn3CC3CC3)ncn2)c(C)c1Cl` [Example 398, 6-(4-chloro-3,5-dimethyl-1H-pyrazol-1-yl)-N-{1-(cyclopropylmethyl)-3-[4-(difluoromethoxy)phenyl]-4-methyl-1H-pyrazol-5-yl}pyrimidin-4-amine] gave an IC50 of 25 nM. With `CSc1c(C)nn(-c2cc(Nc3c(C)c(-c4ccc(F)cc4)nn3CC3CC3)ncn2)c1C` [Example 399, N-[1-(cyclopropylmethyl)-3-(4-fluorophenyl)-4-methyl-1H-pyrazol-5-yl]-6-[3,5-dimethyl-4-(methylsulfanyl)-1H-pyrazol-1-yl]pyrimidin-4-amine], the IC50 amounted to 6 nM. With `Cc1cc(C)n(-c2cc(Nc3nn(C)c(-c4ccc(F)cc4)c3OC(F)F)ncn2)n1` [Example 400, N-[4-(difluoromethoxy)-5-(4-fluorophenyl)-1-methyl-1H-pyrazol-3-yl]-6-(3,5-dimethyl-1H-pyrazol-1-yl)pyrimidin-4-amine], half-maximal inhibition (IC50) required 6 nM. In other words, the single-digit nanomolar range. In turn, `Cc1nn(-c2cc(Nc3c(C)c(-c4ccc(F)cc4)nn3CC3CC3)ncn2)c(C)c1[S+](C)[O-]` (centres unmarked) [Example 401, N-[1-(cyclopropylmethyl)-3-(4-fluorophenyl)-4-methyl-1H-pyrazol-5-yl]-6-[3,5-dimethyl-4-(methylsulfinyl)-1H-pyrazol-1-yl]pyrimidin-4-amine] returned an IC50 of 1400 nM.

In the case of `Cc1nn(-c2cc(Nc3c(C)c(-c4ccc(F)cc4)nn3CC3CC3)ncn2)c(C)c1C(=O)N(C)C` [Example 402, 1-(6-{[1-(cyclopropylmethyl)-3-(4-fluorophenyl)-4-methyl-1H-pyrazol-5-yl]amino}pyrimidin-4-yl)-N,N,3,5-tetramethyl-1H-pyrazole-4-carboxamide], inhibition was half-maximal at 55 nM (IC50).

The compound `Cc1nn(-c2cc(Nc3c(C)c(-c4ccc(F)cc4)nn3CC3CC3)ncn2)c(C)c1Br` [Example 406, 6-(4-bromo-3,5-dimethyl-1H-pyrazol-1-yl)-N-[1-(cyclopropylmethyl)-3-(4-fluorophenyl)-4-methyl-1H-pyrazol-5-yl]pyrimidin-4-amine] came in with an IC50 of 3 nM. In the case of `Cc1cc(C)n(-c2cc(Nc3c(C)c(-c4ccc(C(F)F)cc4)nn3C)ncn2)n1` [Example 407, N-{3-[4-(difluoromethyl)phenyl]-1,4-dimethyl-1H-pyrazol-5-yl}-6-(3,5-dimethyl-1H-pyrazol-1-yl)pyrimidin-4-amine] it was 29 nM; in that of `Cc1cc(C(F)F)n(-c2cc(Nc3c(C)c(-c4ccc(C(F)F)cc4)nn3C)ncn2)n1` [Example 408, 6-[5-(difluoromethyl)-3-methyl-1H-pyrazol-1-yl]-N-{3-[4-(difluoromethyl)phenyl]-1,4-dimethyl-1H-pyrazol-5-yl}pyrimidin-4-amine], 6 nM; in that of `Cc1cc(C)n(-c2cc(Nc3nn(C)c(-c4ccc(C(F)F)cc4)c3C)ncn2)n1` [Example 409, N-{5-[4-(difluoromethyl)phenyl]-1,4-dimethyl-1H-pyrazol-3-yl}-6-(3,5-dimethyl-1H-pyrazol-1-yl)pyrimidin-4-amine], 140 nM.

For `COc1c(Nc2cc(-n3nc(C)cc3C(F)F)ncn2)nn(C)c1-c1ccc(C#N)cc1` [Example 410, 4-[3-({6-[5-(difluoromethyl)-3-methyl-1H-pyrazol-1-yl]pyrimidin-4-yl}amino)-4-methoxy-1-methyl-1H-pyrazol-5-yl]benzonitrile], the IC50 amounted to 2 nM. In the case of `COc1c(-c2ccc(C#N)cc2)nn(C)c1Nc1cc(-n2nc(C)cc2C(F)F)ncn1` [Example 411, 4-[5-({6-[5-(difluoromethyl)-3-methyl-1H-pyrazol-1-yl]pyrimidin-4-yl}amino)-4-methoxy-1-methyl-1H-pyrazol-3-yl]benzonitrile] it was 150 nM.

`Cc1cc(C(F)F)n(-c2cc(Nc3nn(C)c(-c4ccc(F)cc4)c3OC(F)F)ncn2)n1` [Example 412, N-[4-(difluoromethoxy)-5-(4-fluorophenyl)-1-methyl-1H-pyrazol-3-yl]-6-[5-(difluoromethyl)-3-methyl-1H-pyrazol-1-yl]pyrimidin-4-amine] returned an IC50 of 12 nM. Then `Cc1nn(-c2cc(Nc3nn(C)c(-c4ccc(F)cc4)c3OC(F)F)ncn2)c(C)c1Cl` [Example 413, 6-(4-chloro-3,5-dimethyl-1H-pyrazol-1-yl)-N-[4-(difluoromethoxy)-5-(4-fluorophenyl)-1-methyl-1H-pyrazol-3-yl]pyrimidin-4-amine], with 4 nM.

With `COCCn1nc(-c2ccc(F)cc2)c(C)c1Nc1cc(-n2nc(C)c(Cl)c2C)ncn1` [Example 414, 6-(4-chloro-3,5-dimethyl-1H-pyrazol-1-yl)-N-[3-(4-fluorophenyl)-1-(2-methoxyethyl)-4-methyl-1H-pyrazol-5-yl]pyrimidin-4-amine], 3 nM corresponded to half-maximal inhibition (IC50). `Cc1ccc(-c2nn(CC3CC3)c(Nc3cc(-n4nc(C)cc4C(F)F)ncn3)c2C)cn1` [Example 415, N-[1-(cyclopropylmethyl)-4-methyl-3-(6-methylpyridin-3-yl)-1H-pyrazol-5-yl]-6-[5-(difluoromethyl)-3-methyl-1H-pyrazol-1-yl]pyrimidin-4-amine] returned an IC50 of 1150 nM. For `Cc1c(-c2ccc(F)cc2)nn(CC2CC2)c1Nc1cc(-n2[nH]c3c(c2=O)CCCC3)ncn1` [Example 416, 2-(6-{[1-(cyclopropylmethyl)-3-(4-fluorophenyl)-4-methyl-1H-pyrazol-5-yl]amino}pyrimidin-4-yl)-1,2,4,5,6,7-hexahydro-3H-indazol-3-one], half-maximal inhibition (IC50) was put at 1150 nM. In the case of `CNc1ccc(-c2nn(CC3CC3)c(Nc3cc(-n4nc(C)c(Cl)c4C)ncn3)c2C)cc1` [Example 417, 6-(4-chloro-3,5-dimethyl-1H-pyrazol-1-yl)-N-{1-(cyclopropylmethyl)-4-methyl-3-[4-(methylamino)phenyl]-1H-pyrazol-5-yl}pyrimidin-4-amine] it was 27 nM; in that of `CCOC(=O)c1c(C)nn(-c2cc(Nc3c(C)c(-c4ccc(C)nc4)nn3CC3CC3)ncn2)c1C` [Example 418, ethyl 1-(6-{[1-(cyclopropylmethyl)-4-methyl-3-(6-methylpyridin-3-yl)-1H-pyrazol-5-yl]amino}pyrimidin-4-yl)-3,5-dimethyl-1H-pyrazole-4-carboxylate], 65 nM.
